Measurements as given in patent US20230248626A1, “Compositions Comprising (Bio)-Alkanediols” (Symrise AG, priority 0001, published 2023).
Values after ≈ are worked out from the molar mass of the structure shown. Where two headings read alike, the source gives them in different places. Each block holds one compound with its values, some of them ahead of it.

Legend:
Corynebacterium jeikeium = assay: MIC test (growth inhibition, 96 well plates, OD); format: cell-based; details: read-out: Minimum Inhibitory Concentration (MIC)
Description: (§1) The MIC test is a test on growth inhibition. Estimation of Minimum Inhibitory Concentration (MIC) is executed in 96 well plates. Through the comparison of bacterial growth with positive and negative controls via optical density (OD), different concentrations of given test substances are evaluated.
(§2) Bacteria are cultivated under adjusted conditions based on information of the German Collection of Microorganisms and Cell Cultures (DSMZ) and stored in 50% Glycerol prior to use. Afterwards, the following method was applied: Adding growth medium (according to microorganism) to each well of the microplate. Adding the test-substances in different concentrations, positive controls (water controls only with medium) and negative controls (benchmarks according to organism). Adding the microorganism in a concentration of 10^6 CFU/ml (CFU=colony forming units). Incubation of the microplates at appropriate conditions.
(§3) According to resulting growth, substance concentrations are labelled either as inhibiting or not and MIC is defined as the lowest concentration where a complete growth inhibition is visible. Experiments at concentration limits (highest concentration labelled as growth and lowest concentration labelled as inhibiting) are performed at least twice.

Propionibacterium acnes = assay: MIC test (growth inhibition, 96 well plates, OD); format: cell-based; details: Cutibacterium acnes; read-out: Minimum Inhibitory Concentration (MIC)
Description: as §1, §2, §3

Staphylococcus hominis = assay: MIC test (growth inhibition, 96 well plates, OD); format: cell-based; details: read-out: Minimum Inhibitory Concentration (MIC)
Description: as §1, §2, §3

Candida albicans = assay: MIC test (growth inhibition, 96 well plates, OD); format: cell-based; details: read-out: Minimum Inhibitory Concentration (MIC)
Description: as §1, §2, §3

Escherichia coli = assay: MIC test (growth inhibition, 96 well plates, OD); format: cell-based; details: read-out: Minimum Inhibitory Concentration (MIC)
Description: as §1, §2, §3

Staphylococcus aureus = assay: MIC test (growth inhibition, 96 well plates, OD); format: cell-based; details: read-out: Minimum Inhibitory Concentration (MIC)
Description: as §1, §2, §3

Aspergillus brasiliensis = assay: MIC and Kull synergy index of 1,2-/2,3-alkanediol mixtures; format: cell-based
[1] = Sensory evaluation on the backside of the hand (spreading, fatty/greasy skin feel, absorption), untrained panellists; details: for Absorption/remaining residue with alkanediol: scale 1 to 5
Description: For evaluating the sensory behaviour, liquid lipophilic components specified in the following table were blended with 1,2-heptanediol or 2,3-heptanediol or a mixture of 1,2-heptanediol and 2,3-heptanediol or 1,2-octanediol or 2,3-octanediol or a mixture of 1,2-octanediol and 2,3-octanediol (formulation) in a ratio of 85:15 and assessed by untrained panellists in comparison to the liquid lipophilic component without addition of the specified alkanediols (placebo).
The test procedure was carried as follows: For evaluating the sensory behaviour of 1,2-alkanediols and/or 2,3-alkanediols in combination with different liquid lipophilic components, oil components specified in the following table were blended with a 1,2-alkanediol or a 2,3-alkanediol or a mixture including a 1,2-alkanediol and a 2,3-alkanediol in a ratio as specified in Table 53 and assessed by untrained panellists in comparison to the liquid lipophilic component without addition of the 1,2-alkanediol or 2,3-alkanediol or the mixture including a 1,2-alkanediol and 2,3-alkanediol (placebo).
Test Procedure: • Hands were pre-washed with liquid soap by following a defined procedure; 30 μl of corresponding sample was applied on the backside of each hand (randomized); • After 30 s the spreading behaviour of the respective formulation on skin was evaluated versus the respective oil component without 1,2-heptanediol on a scale from 1 to 5 (1=low spreading; 5=high spreading); • The samples were distributed with the fingertips of middle and forefinger with 2×5 cycles; • After 2 minutes, the fatty/greasy skin feel was evaluated on a scale from 1 to 5 (1=low fatty/greasy skin feel; 5=high fatty/greasy skin feel); • Furthermore the applicants were asked to assess the absorption, i.e. the impression of amount of remaining residue on the skin on a scale from 1 to 5 (1=low absorption; 5=high absorption).

Candida albicans (CA) = assay: Preservation efficacy test (PET), European Pharmacopoeia 5.1.3; format: cell-based
Description: (§4) The preservation efficacy test (PET) was performed in accordance with European Pharmacopoeia § 5.1.3: The test is a reference European Pharmacopoeia method, that is to be used to evaluate the preservation system of a cosmetic or pharmaceutical preparation. The test consists of challenging the preparation under test, with prescribed inoculums of suitable microorganisms. The preservation porperties of the preparation are adequate if, in the conditions of the test, there is a significant fall or no increase, as appropriate, in the number of microorganisms in the inoculated preparations after the time prescribed.
(§5) The test microorganisms which were used, are the following:
(§6) Pseudomonas aeruginosa (PA) (bacterium); Staphylococcus aureus (SA) (bacterium); Escherichia coli (EC) (bacterium); Candida albicans (CA) (yeast); and Aspergillus brasiliensis (AB) (fungus).

[2] = test system: Staphylococcus aureus (SA); assay: as above; format: cell-based
Description: as §4, §5, §6

Escherichia coli (EC) = assay: as above; format: cell-based
Description: as §4, §5, §6

[3] = test system: Aspergillus brasiliensis (AB); assay: as above; format: cell-based
Description: as §4, §5, §6

[4] = test system: Pseudomonas aeruginosa (PA); assay: as above; format: cell-based
Description: as §4, §5, §6

human sebaceous glands = assay: Sebum production of micro-dissected, cultured human sebaceous glands (lipids/proteins after six days); format: cell-based; set-up: sebum reduction: concentration or dose not given beside the values; details: compared to untreated control; six days; single donor (FIG. 4)
Description: Additional tests were performed with human sebaceous glands in order to verify the modulatory activity of different 1,2-alkanediols and 2,3-alkanediols on sebum secretion. Several microbial species on the skin are lipid dependent and feed on the human sebum (e.g. Corynebacterium, Propionibacterium). Accordingly, sebum reduction can indirectly support the reduction of microorganisms on the skin and in this way also indirectly support e.g. dandruff or acne reduction.
For these experiments sebaceous glands had been micro-dissected and cultured with medium. The medium without any supplement served as untreated control. Medium with 5 μM Capsaicin served as positive control. Additionally, culture medium was supplemented with different concentrations of alkanediols. After six days the sebaceous glands were collected and lipids and proteins quantified. The total lipid amount being representative of sebum production was obtained by normalizing the quantified lipids upon the quantified proteins (i.e. mg of lipids/mg of proteins).

[5] = single 1,2-alkanediol, read-out: MIC Component A
[6] = blend with Caprylic Capric Triglyceride (CCT) (neutral oil), rows r187-r195, vs without
[7] = blend with Caprylic Capric Triglyceride (CCT) (neutral oil), rows r187-r195

MIC (Corynebacterium jeikeium): 2500 µg/mL (≈ 14300 µM) | MIC (Propionibacterium acnes): 500 µg/mL (≈ 2870 µM) | MIC (Staphylococcus hominis): 500 µg/mL (≈ 2870 µM) | MIC (Candida albicans): 250 µg/mL (≈ 1430 µM) | MIC (Escherichia coli): 250 µg/mL (≈ 1430 µM) | MIC (Staphylococcus aureus): 250 µg/mL (≈ 1430 µM)
Structure (SMILES): CCCCCCCCC(O)CO (stereo not drawn) [1,2-Decanediol, 1,2-decanediol, reference compound]

MIC (Aspergillus brasiliensis; [5]): 7500 µg/mL | Absorption/remaining residue Delta [1, 6]: 1.8 | Absorption/remaining residue with alkanediol [1, 7]: 2.8
Structure (SMILES): CCCCC(O)CO (stereo not drawn) [1,2-hexanediol]

MIC (Aspergillus brasiliensis; [5]): 2500 µg/mL | Absorption/remaining residue Delta ([1]; blend with Argan Oil vs without): 1.2 | Absorption/remaining residue with alkanediol ([1]; blend with Argan Oil): 2.6 | Absorption/remaining residue Delta ([1]; blend with Avocado Oil vs without): 1.2 | Absorption/remaining residue with alkanediol ([1]; blend with Avocado Oil): 2.6 | Absorption/remaining residue Delta ([1]; blend with Cacao butter vs without): 0.6 | Absorption/remaining residue with alkanediol ([1]; blend with Cacao butter): 3 | Absorption/remaining residue Delta ([1]; blend with Castor Oil vs without): 1 | Absorption/remaining residue with alkanediol ([1]; blend with Castor Oil): 3.4 | Absorption/remaining residue Delta ([1]; blend with Coconut Oil vs without): 0.8 | Absorption/remaining residue with alkanediol ([1]; blend with Coconut Oil): 3 | Absorption/remaining residue Delta ([1]; blend with Grapeseed Oil vs without): 1 | Absorption/remaining residue with alkanediol ([1]; blend with Grapeseed Oil): 1.6 | Absorption/remaining residue Delta ([1]; blend with Helianthus Annuus (Sunflower) Seed Oil vs without): 1.8 | Absorption/remaining residue with alkanediol ([1]; blend with Helianthus Annuus (Sunflower) Seed Oil): 2 | Absorption/remaining residue Delta ([1]; blend with Octocrylene (Neo Heliopan 303), vs without): 0.5 | Absorption/remaining residue with alkanediol ([1]; blend with Octocrylene (Neo Heliopan 303)): 3.5 | Absorption/remaining residue Delta ([1]; blend with Olive Oil vs without): 1.4 | Absorption/remaining residue with alkanediol ([1]; blend with Olive Oil): 2.6 | MIC (Corynebacterium jeikeium): 5000 µg/mL (≈ 34200 µM) | MIC (Staphylococcus hominis): 5000 µg/mL (≈ 34200 µM) | MIC (Candida albicans): 2500 µg/mL (≈ 17100 µM) | MIC (Escherichia coli): 5000 µg/mL (≈ 34200 µM) | MIC (Staphylococcus aureus): 2500 µg/mL (≈ 17100 µM)
Structure (SMILES): CCCCCCC(O)CO (stereo not drawn) [1,2-octanediol]
number of microorganisms after 2 days (Candida albicans (CA); 0.1% in wet wipes solution): 4,700,000 | number of microorganisms after 7 days (Candida albicans (CA); 0.1% in wet wipes solution): 3,900,000 | number of microorganisms after 14 days (Candida albicans (CA); 0.1% in wet wipes solution): 5,800,000 | number of microorganisms after 28 days (Candida albicans (CA); 0.1% in wet wipes solution): 9,300,000 | number of microorganisms after 2 days (Candida albicans (CA); 0.2% in o/w emulsion): 950,000 | number of microorganisms after 7 days (Candida albicans (CA); 0.2% in o/w emulsion): 15,000 | number of microorganisms after 14 days (Candida albicans (CA); 0.2% in o/w emulsion): 36 | number of microorganisms after 28 days (Candida albicans (CA); 0.2% in o/w emulsion): 1 | number of microorganisms after 2 days ([2]; 0.1% in wet wipes solution): 425 | number of microorganisms after 7 days ([2]; 0.1% in wet wipes solution): 50 | number of microorganisms after 14 days ([2]; 0.1% in wet wipes solution): 50 | number of microorganisms after 28 days ([2]; 0.1% in wet wipes solution): 50 | number of microorganisms after 2 days ([2]; 0.2% in o/w emulsion): 1 | number of microorganisms after 7 days ([2]; 0.2% in o/w emulsion): 1 | number of microorganisms after 14 days ([2]; 0.2% in o/w emulsion): 1 | number of microorganisms after 28 days ([2]; 0.2% in o/w emulsion): 1 | number of microorganisms after 2 days (Escherichia coli (EC); 0.1% in wet wipes solution): 1,300,000 | number of microorganisms after 7 days (Escherichia coli (EC); 0.1% in wet wipes solution): 3,500,000 | number of microorganisms after 14 days (Escherichia coli (EC); 0.1% in wet wipes solution): 2,100,000 | number of microorganisms after 28 days (Escherichia coli (EC); 0.1% in wet wipes solution): 2,300 | number of microorganisms after 2 days (Escherichia coli (EC); 0.2% in o/w emulsion): 1 | number of microorganisms after 7 days (Escherichia coli (EC); 0.2% in o/w emulsion): 1 | number of microorganisms after 14 days (Escherichia coli (EC); 0.2% in o/w emulsion): 1 | number of microorganisms after 28 days (Escherichia coli (EC); 0.2% in o/w emulsion): 1 | number of microorganisms after 2 days ([3]; 0.1% in wet wipes solution): 22,000,000 | number of microorganisms after 7 days ([3]; 0.1% in wet wipes solution): 8,500,000 | number of microorganisms after 14 days ([3]; 0.1% in wet wipes solution): 11,000,000 | number of microorganisms after 28 days ([3]; 0.1% in wet wipes solution): 12,000,000 | number of microorganisms after 2 days ([3]; 0.2% in o/w emulsion): 2,400,000 | number of microorganisms after 7 days ([3]; 0.2% in o/w emulsion): 2,700,000 | number of microorganisms after 14 days ([3]; 0.2% in o/w emulsion): 2,100,000 | number of microorganisms after 28 days ([3]; 0.2% in o/w emulsion): 1,200,000 | number of microorganisms after 2 days ([4]; 0.1% in wet wipes solution): 1,300,000 | number of microorganisms after 7 days ([4]; 0.1% in wet wipes solution): 2,500,000 | number of microorganisms after 14 days ([4]; 0.1% in wet wipes solution): 750,000 | number of microorganisms after 28 days ([4]; 0.1% in wet wipes solution): 350,000 | number of microorganisms after 2 days ([4]; 0.2% in o/w emulsion): 1 | number of microorganisms after 7 days ([4]; 0.2% in o/w emulsion): 1 | number of microorganisms after 14 days ([4]; 0.2% in o/w emulsion): 1 | number of microorganisms after 28 days ([4]; 0.2% in o/w emulsion): 1

MIC (Corynebacterium jeikeium): 250 µg/mL (≈ 1330 µM) | MIC (Propionibacterium acnes): 250 µg/mL (≈ 1330 µM) | MIC (Staphylococcus hominis): 250 µg/mL (≈ 1330 µM) | MIC (Candida albicans): 250 µg/mL (≈ 1330 µM) | MIC (Escherichia coli): 500 µg/mL (≈ 2660 µM) | MIC (Staphylococcus aureus): 250 µg/mL (≈ 1330 µM)
Structure (SMILES): CCCCCCCCC(O)C(C)O (stereo not drawn) [2,3-Undecanediol, 2,3-undecanediol]
sebum reduction (human sebaceous glands): more than 50%

Structure (SMILES): CCCCCCCCCC(O)CO (stereo not drawn) [1,2-undecanediol]
sebum reduction (human sebaceous glands): 44%

MIC (Aspergillus brasiliensis; single 2,3-alkanediol, read-out: MIC Component B): 20000 µg/mL | Absorption/remaining residue Delta [1, 6]: 1.8 | Absorption/remaining residue with alkanediol [1, 7]: 2.8
Structure (SMILES): CCCC(O)C(C)O (stereo not drawn) [2,3-hexandiol, 2,3-hexanediol]
